Experimental findings from patent publication US20250091989A1, “SMALL MOLECULE PROTEIN SYNTHESIS MODULATORS” (Interdict Bio, Inc., priority 2023, published 2025) are described below.

SMILES strings stand for the structures.

Common to all, as to assay type: biochemical
Settings in all cases: HeLa S3 lysate, sfGFP/mCherry ratio, 2 hrs at 30° C.

The test system of one assay is ALK. Put plainly: In vitro transcription-translation (IVTT) reporter assay, ALK test sequence. The source says:
(§1) All reporter constructs have been cloned into the pT7CFE1-CHis plasmid (ThermoFisher #88860) using Gibson assembly procedures (NEB #E2611L). The parental pT7CFE1-CHis plasmid contains an EMCV IRES at the 5′UTR for translation initiation, a multiple-cloning site (MCS) for gene insertion, an optional C-terminal His-epitope tag, and polyA sequence in the 3′UTR to regulate mRNA stability. All reporters are designed to be inserted at the MCS to include a red fluorescent protein (mCherry), P2A self-cleaving peptide which releases the preceding mCherry protein product, and a fusion open reading frame containing a 3×FLAG epitope, a peptide sequence of interest (TEST), and green fluorescent protein (sfGFP).
(§2) Construct Plasmid Preparation: All plasmids are isolated from MACH1 cells (ThermoFisher) grown overnight in ampicillin-containing luria broth, and purified using ZymoPure Express Plasmid Midiprep Kit (Zymo Research). Constructs are sequenced verified and diluted to a working concentration of 110 ng/μL.
(§3) HeLa S3 Lysate Preparation: HeLa S3 cell pellets are acquired from Ipracell/Ipratech (Belgium) and shipped as 4 mL frozen cell pellets on dry ice for storage at −80° C. until use. The procedure for lysate preparation is as follows. Prepare 1× Lysis Buffer, cold and stored on ice:
(§4) Each preparation takes 8 cell pellets (4 ml packed volume each, approximately 1.0×10^9 cells per pellet). Thaw cell pellets from −80° C. on ice for 90 mins. Lay pellets horizontally on top of the ice and rotate every 30 mins to ensure even thawing. Once thawed, add 4 mL of cold lysis buffer to each pellet, and using a serological pipet, gently pipet up and down to break up clumps. Incubate resuspended cells in ice for an additional 30 mins (plunged into ice). During 30 min incubation, rinse and RNase-zap (Ambion) glass dounces (use loose pestle “A”), gently dry and place on ice until needed. Prepare RNase-free Eppendorf tubes for spinning and for batch storage. Add batch labels to 1.5-1.7 mL RNase-free microcentrifuge tubes (labeling scheme below). Each batch will have an extra 1.5-1.7 mL RNase-free microcentrifuge tube for 40 μL of lysate, label the top of this tube (labeling scheme below). After 30 min incubation, transfer all 8 mL of cell pellet to dounce. Cell lysis is complete after douncing 100 times. Aliquot cell lysis into 1.5-1.7 mL temporary-microcentrifuge tubes. Place tubes in centrifuge with “fins” out, and spin at 1,200 xg for 5 mins. After the first spin use a 1 mL pipet to resuspend each tube and repeat spin. This acts as an additional lysis step, is more vigorous and increases lysate yield. During second spin get liquid N2 and a fresh conical tube on ice.
(§5) After spin is complete, transfer supernatant (lysate) from microcentrifuge tubes into the 50 mL conical tube and keep on ice. Repeat steps 10-14 for all other cell pellets until completed. Once all cell lysate has been transferred to the 50 mL conical tube pipet to mix so the solution is homogenous. Transfer 1 mL of lysate into batch-labeled microcentrifuge tubes and flash freeze in liquid nitrogen. Be sure to pipet up and down to mix throughout transfer step. Place all tubes in the […] for long-term storage.
(§6) In vitro transcription-translation assay setup: Each assay includes a master mix containing lysate and shared components, a 96-well plate containing compound titrations for testing, a 96-well DNA plate with reporter constructs to be tested, 96-well skirted PCR plates, and 96-well flat-bottom, black, fluorescent assay plates. […]
(In general: Reporter assays use an easily measured gene product as a stand-in for the process of interest.)

In another assay the test system is MYC. The assay can be described thus: In vitro transcription-translation (IVTT) reporter assay, MYC test sequence.
Description: as §1, §2, §3, §4, §5, §6

Another assay concerns KRAS G12D. Put plainly: In vitro transcription-translation (IVTT) reporter assay, KRAS G12D test sequence.
Description: as §1, §2, §3, §4, §5, §6

For orientation: IC50 means the concentration that gives 50% inhibition. Take `C=C(F)C(=O)O[C@@H]1[C@@H](O)CN[C@@H]1Cc1ccc(OC)cc1` [V0081, (2R,3S,4S)-4-hydroxy-2-[(4-methoxyphenyl)methyl]pyrrolidin-3-yl 2-fluoroprop-2-enoate]: the IC50 with ALK, with MYC and with KRAS G12D was greater than 30 µM throughout.
In the case of `COc1ccc(C[C@H]2NC[C@H](O)[C@H]2OC(=O)c2ccc(C(=O)C(F)(F)F)cc2)cc1` [V0092, (2R,3S,4S)-4-hydroxy-2-[(4-methoxyphenyl)methyl]pyrrolidin-3-yl 4-(2,2,2-trifluoroacetyl)benzoate], the IC50 in the assay on ALK, in the assay with MYC and in the assay on KRAS G12D was greater than 30 µM throughout.
Take `COc1ccc(C[C@H]2NC[C@H](O)[C@H]2OC(=O)C2COC2)cc1` [V0106, (2R,3S,4S)-4-hydroxy-2-[(4-methoxyphenyl)methyl]pyrrolidin-3-yl oxetane-3-carboxylate]: the IC50 with ALK is less than 10 µM; in the assay on MYC, 10 to 20 µM; with KRAS G12D it was 20 to 30 µM.
For `COc1ccc(C[C@H]2NC[C@H](O)[C@H]2OC(=O)C2CNC2)cc1` [V0107, (2R,3S,4S)-4-hydroxy-2-[(4-methoxyphenyl)methyl]pyrrolidin-3-yl azetidine-3-carboxylate], in that order: 20 to 30 µM, greater than 30 µM and greater than 30 µM.
As for `COc1ccc(C[C@H]2NC[C@H](O)[C@H]2OC(=O)C2CC3(CNC3)C2)cc1` [V0108, (2R,3S,4S)-4-hydroxy-2-[(4-methoxyphenyl)methyl]pyrrolidin-3-yl 2-azaspiro[3.3]heptane-6-carboxylate], the 50% inhibitory concentration (IC50) in the assay with MYC and in the assay with KRAS G12D was greater than 30 µM each time.
Consider `COc1ccc(C[C@H]2NC[C@H](O)[C@H]2OC(=O)Cc2ccccc2)cc1` [V0110, (2R,3S,4S)-4-hydroxy-2-[(4-methoxyphenyl)methyl]pyrrolidin-3-yl 2-phenylacetate], for which the IC50 with MYC and in the assay on KRAS G12D was less than 10 µM in each case.
For `COc1ccc(C[C@H]2NC[C@H](O)[C@H]2OC(=O)CC2COC2)cc1` [V0111, (2R,3S,4S)-4-hydroxy-2-[(4-methoxyphenyl)methyl]pyrrolidin-3-yl 2-(oxetan-3-yl)acetate], the IC50 with ALK, in the assay on MYC and in the assay with KRAS G12D was less than 10 µM in each case.
As for `COc1ccc(C[C@H]2NC[C@H](O)[C@H]2OC(=O)[C@H]2CN(Cc3ccccc3)CC23CNC3)cc1` [V186718, (2R,3S,4S)-4-hydroxy-2-[(4-methoxyphenyl)methyl]pyrrolidin-3-yl (8R)-6-benzyl-2,6-diazaspiro[3.4]octane-8-carboxylate], the IC50 in the assay with ALK and in the assay on KRAS G12D was greater than 30 µM in each case.
On to `COc1ccc(C[C@H]2NC[C@H](O)[C@H]2OC(=O)C2CCOCC2)cc1` [V186763, (2R,3S,4S)-4-hydroxy-2-[(4-methoxyphenyl)methyl]pyrrolidin-3-yl oxane-4-carboxylate], for which the IC50 in the assay with ALK and in the assay with KRAS G12D was greater than 30 µM each time.
As to `COc1ccc(C[C@H]2NC[C@H](O)[C@H]2OC(=O)C2CC(O)C2)cc1` (some centres unmarked) [V186765], the IC50 in the assay on MYC was less than 10 µM; with KRAS G12D, 10 to 20 µM.
For `COc1ccc(C[C@H]2NC[C@H](O)[C@H]2OC(=O)C2CCCS2)cc1` (stereo partly drawn) [V186774, (2R,3S,4S)-4-hydroxy-2-[(4-methoxyphenyl)methyl]pyrrolidin-3-yl thiolane-2-carboxylate] the same measures were 20 to 30 µM and greater than 30 µM.
Turning to `CCCC(CCC)C(=O)O[C@@H]1[C@@H](O)CN[C@@H]1Cc1ccc(OC)cc1` [V186780], the IC50 in the assay on KRAS G12D was greater than 30 µM.
For `CC(=O)O[C@@H]1[C@@H](O)CN[C@@H]1Cc1ccc(-c2ccccc2)cc1` [V186811], the IC50 in the assay with MYC and in the assay on KRAS G12D was less than 10 µM each time.
Consider `COc1ccc(C[C@H]2NC[C@H](O)[C@H]2OC(=O)[C@H]2CC[C@@H](O)CC2)cc1` [V186822, (2R,3S,4S)-4-hydroxy-2-[(4-methoxyphenyl)methyl]pyrrolidin-3-yl (1 s,4 s)-4-hydroxy cyclohexane-1-carboxylate], for which the IC50 in the assay on KRAS G12D is greater than 30 µM.
Regarding `COc1ccc(C[C@H]2NC[C@H](O)[C@H]2OC(=O)C2CSSC2)cc1` [V186868, (2R,3S,4S)-4-hydroxy-2-[(4-methoxyphenyl)methyl]pyrrolidin-3-yl 1,2-dithiolane-4-carboxylate; trifluoroacetic acid], the half-maximal inhibitory concentration (IC50) with ALK and in the assay with KRAS G12D was greater than 30 µM each time.
On to `COc1ccc(C[C@H]2NC[C@H](O)[C@H]2OC(=O)CCC2C(=O)N(C)CC(=O)N2C)cc1` (stereo partly drawn) [V186871, (2R,3S,4S)-4-hydroxy-2-[(4-methoxyphenyl)methyl]pyrrolidin-3-yl 3-(1,4-dimethyl-3,6-dioxopiperazin-2-yl)propanoate; trifluoroacetic acid], for which the IC50 in the assay on MYC was 20 to 30 µM; with KRAS G12D, greater than 30 µM.
For `COc1ccc(C[C@H]2NC[C@H](O)[C@H]2OC(=O)Cc2ccc(F)cc2)cc1` [V187054, (2R,3S,4S)-4-hydroxy-2-[(4-methoxyphenyl)methyl]pyrrolidin-3-yl 2-(4-fluorophenyl) acetate] the same measures were less than 10 µM and less than 10 µM.
`COc1ccc(C[C@H]2NC[C@H](O)[C@H]2OC(=O)CN2CC3(C2)CC(F)(F)C3)cc1` [V187067, (2R,3S,4S)-4-hydroxy-2-[(4-methoxyphenyl)methyl]pyrrolidin-3-yl 2-{6,6-difluoro-2-azaspiro[3.3]heptan-2-yl}acetate]: the IC50 is less than 10 µM with ALK and 10 to 20 µM with KRAS G12D.
Turning to `COc1ccc(C[C@H]2NC[C@H](O)[C@H]2OC(=O)Cc2ccc(N3CCOCC3)cc2)cc1` [V187134, (2R,3S,4S)-4-hydroxy-2-[(4-methoxyphenyl)methyl]pyrrolidin-3-yl 2-[4-(morpholin-4-yl)phenyl]acetate], the IC50 with ALK and in the assay with MYC was less than 10 µM throughout.
Consider `COc1ccc(C[C@H]2NC[C@H](O)[C@H]2OC(=O)Cc2ccc(F)c(Cl)c2)cc1` [V187164, (2R,3S,4S)-4-hydroxy-2-[(4-methoxyphenyl)methyl]pyrrolidin-3-yl 2-(3-chloro-4-fluorophenyl)acetate; trifluoroacetic acid], for which the IC50 in the assay on MYC and in the assay with KRAS G12D was less than 10 µM in each case.
For the compound `COc1ccc(C[C@H]2NC[C@H](O)[C@H]2OC(=O)COC2CC2)cc1` [V187169, (2R,3S,4S)-4-hydroxy-2-[(4-methoxyphenyl)methyl]pyrrolidin-3-yl 2-cyclopropoxyacetate; trifluoroacetic acid], the IC50 in the assay with MYC and with KRAS G12D was less than 10 µM throughout.
For `COc1ccc(C[C@H]2NC[C@H](O)[C@H]2OC(=O)COC2CC(F)(F)C2)cc1` [V187171, (2R,3S,4S)-4-hydroxy-2-[(4-methoxyphenyl)methyl]pyrrolidin-3-yl 2-(3,3-difluorocyclobutoxy)acetate; trifluoroacetic acid], the IC50 with ALK and with KRAS G12D was less than 10 µM throughout.
Consider `COc1ccc(C[C@H]2NC[C@H](O)[C@H]2OC(=O)Cn2cnnc2)cc1` [V187181, (2R,3S,4S)-4-hydroxy-2-[(4-methoxyphenyl)methyl]pyrrolidin-3-yl 2-(1,2,4-triazol-4-yl)acetate], for which the IC50 in the assay with ALK was less than 10 µM; in the assay with MYC, 20 to 30 µM.
As for `COc1ccc(C[C@H]2NC[C@H](O)[C@H]2OC(=O)Cc2ccc(CC(C)C)cc2)cc1` [V187182, (2R,3S,4S)-4-hydroxy-2-[(4-methoxyphenyl)methyl]pyrrolidin-3-yl 2-[4-(2-methylpropyl)phenyl]acetate; trifluoroacetic acid], the IC50 was 10 to 20 µM in the assay on ALK and greater than 30 µM in the assay with MYC.
Turning to `COc1ccc(C[C@H]2NC[C@H](O)[C@H]2OC(=O)CNc2c(NCc3ccccc3)c(=O)c2=O)cc1` [V187517, (2R,3S,4S)-4-hydroxy-2-[(4-methoxyphenyl)methyl]pyrrolidin-3-yl 2-{[2-(benzylamino)-3,4-dioxocyclobut-1-en-1-yl]amino}acetate; trifluoroacetic acid], the IC50 in the assay with ALK was less than 10 µM; in the assay with KRAS G12D it was 20 to 30 µM.
